US9938269B2, “Inhibitor compounds of phosphodiesterase type 10A” (ABBVIE INC., priority 2011, dated 2018)

Target: T1, PDE10A (human) (Homo sapiens, UniProt Q9Y233)
T1 construct: purchased BPS Bioscience
Assay: Measurement of PDE activity (HTRF cAMP kit), human PDE10A
Assay type: biochemical
Details: PDE enzymatic reaction, substrate 20 nM for PDE10, 60 minutes at 29 C
Procedure: The recombinant PDE proteins are used in in vitro enzymatic reaction for measurement of PDE activity. These recombinant proteins, including PDE10A (human, rat and mouse PDE10) and isoforms of PDEs 1, 3, 4, and 5, were purchased from commercial vendor BPS Bioscience. The enzymatic activity of PDEs was determined by cAMP measurement kit from CisBio (IBA) using HTRF technology.
The PDE enzymatic reaction was carried out in assay buffer (20 mM Tris-HCl pH7.5, 10 mM MgCl2, 0.1% bovine serum albumin) containing enzyme and substrate. The PDE enzymes concentration ranged from 10 pM-250 pM, depending on each enzyme's specific activity. The substrate cyclic nucleotide (cAMP or cGMP) concentration used in the assay was 20 nM for PDE10, and 100 nM for other PDEs. The inhibitory effect of compound was determined by incubating various concentration of inhibitor in the enzymatic assay. Typically, compound was serial diluted in DMSO then further diluted in assay buffer. Next, the compound at varying concentration was mixed with PDE enzyme. The reaction was initiated by addition of cyclic nucleotide substrate, and incubated for 60 minutes at 29 C. The reaction was stopped by addition of lysis buffer from assay kit. The cAMP-d2 and anti-cAMP cryptate in the lysis buffer detected the level of cAMP left from the PDE hydrolysis reaction. The PDE activity is reversely correlated with the amount of cAMP left in the reaction and can be converted to the percent activity of an uninhibited control (100%). Thus, IC50 value of inhibitor can be obtained by plotting inhibitor concentration against PDE activity at that concentration.

T1 sequence (Q9Y233 whole entry): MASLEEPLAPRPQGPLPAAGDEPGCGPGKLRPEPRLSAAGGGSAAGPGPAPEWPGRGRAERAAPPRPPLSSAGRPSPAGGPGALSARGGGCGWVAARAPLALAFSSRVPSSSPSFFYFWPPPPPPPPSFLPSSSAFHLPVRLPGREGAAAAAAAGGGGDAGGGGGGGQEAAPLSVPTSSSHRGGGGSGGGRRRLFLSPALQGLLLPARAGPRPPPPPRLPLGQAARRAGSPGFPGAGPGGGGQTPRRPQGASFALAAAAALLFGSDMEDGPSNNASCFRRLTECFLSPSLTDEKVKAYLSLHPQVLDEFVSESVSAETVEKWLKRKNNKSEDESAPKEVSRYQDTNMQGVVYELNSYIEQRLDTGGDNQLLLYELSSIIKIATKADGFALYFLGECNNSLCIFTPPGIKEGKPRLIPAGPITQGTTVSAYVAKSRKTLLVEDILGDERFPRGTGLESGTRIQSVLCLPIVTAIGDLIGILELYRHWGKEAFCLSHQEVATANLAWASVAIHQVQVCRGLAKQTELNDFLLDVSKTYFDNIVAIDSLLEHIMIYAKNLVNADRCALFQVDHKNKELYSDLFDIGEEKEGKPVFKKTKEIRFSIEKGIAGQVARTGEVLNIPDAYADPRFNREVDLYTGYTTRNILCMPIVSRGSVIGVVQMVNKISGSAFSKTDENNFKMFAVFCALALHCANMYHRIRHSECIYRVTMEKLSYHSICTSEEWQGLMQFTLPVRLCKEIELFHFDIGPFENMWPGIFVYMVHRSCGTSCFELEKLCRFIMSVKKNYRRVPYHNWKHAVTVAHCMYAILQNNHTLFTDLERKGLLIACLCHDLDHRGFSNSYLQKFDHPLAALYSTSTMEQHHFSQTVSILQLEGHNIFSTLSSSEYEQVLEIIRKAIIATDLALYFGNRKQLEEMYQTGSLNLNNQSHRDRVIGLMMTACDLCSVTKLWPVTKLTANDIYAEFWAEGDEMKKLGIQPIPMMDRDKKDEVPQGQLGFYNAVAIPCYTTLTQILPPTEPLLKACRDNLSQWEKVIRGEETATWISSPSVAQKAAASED

O=C1c2c(ccnc2-c2ccncc2)CN1CCc1ccc2ccccc2n1 [Example 1, 4-Pyridin-4-yl-2-(2-quinolin-2-yl-ethyl)-1,2-dihydro-pyrrolo[3,4-c]pyridin-3-one; compound with trifluoro-acetic acid] gave an IC50 of less than 100 nM.
In the case of O=C1c2c(cccc2-c2ccncc2)CN1CCc1ccc2ccccc2n1 [Example 5, 7-Pyridin-4-yl-2-(2-quinolin-2-yl-ethyl)-2,3-dihydro-isoindol-1-one], the IC50 is reported as less than 100 nM.
For CC1(C)c2cccc(-c3ccncc3)c2C(=O)N1CCc1ccc2ccccc2n1 [Example 6, 3,3-Dimethyl-7-pyridin-4-yl-2-(2-quinolin-2-yl-ethyl)-2,3-dihydro-isoindol-1-one], the IC50 was 100 to 200 nM.
O=C1c2c(cccc2-c2ccncc2)CN1CC(F)(F)c1ccc2ccccc2n1 [Example 13, 2-(2,2-Difluoro-2-quinolin-2-yl-ethyl)-7-pyridin-4-yl-2,3-dihydro-isoindol-1-one] showed an IC50 of less than 100 nM.
Molecule O=C1c2c(-c3ccncc3)ccc(F)c2CN1CCc1ccc2ccccc2n1 [Example 16, 4-Fluoro-7-pyridin-4-yl-2-(2-quinolin-2-yl-ethyl)-2,3-dihydro-isoindol-1-one] has an IC50 of less than 100 nM.
In the case of Cn1c2cccc(-c3ccncc3)c2c(=O)n1CCc1ccc2ccccc2n1 [Example 17, 1-Methyl-4-(pyridin-4-yl)-2-(2-(quinolin-2-yl)ethyl)-1,2-dihydroindazol-3-one], the IC50 is reported as less than 100 nM.
O=c1c2c(-c3ccncc3)cccc2on1CCc1ccc2ccccc2n1 [Example 18, 4-Pyridin-4-yl-2-(2-quinolin-2-yl-ethyl)-benzo[d]isoxazol-3-one] was tested, and the IC50 was less than 100 nM.
O=C1c2c(cccc2-c2ccccc2)CN1CCc1ccc2ccccc2n1 [Example 21, 7-Phenyl-2-(2-quinolin-2-yl-ethyl)-2,3-dihydro-isoindol-1-one] gave an IC50 of 100 to 200 nM.
Molecule O=C1c2c(cccc2-c2ccc(F)cc2)CN1CCc1ccc2ccccc2n1 [Example 22, 7-(4-Fluoro-phenyl)-2-(2-quinolin-2-yl-ethyl)-2,3-dihydro-isoindol-1-one] has an IC50 of less than 100 nM.
For COc1ccc(-c2cccc3c2C(=O)N(CCc2ccc4ccccc4n2)C3)cc1 [Example 23, 7-(4-Methoxy-phenyl)-2-(2-quinolin-2-yl-ethyl)-2,3-dihydro-isoindol-1-one], the IC50 was less than 100 nM.
For O=C1c2c(cccc2-c2ccsc2)CN1CCc1ccc2ccccc2n1 [Example 25, 2-(2-Quinolin-2-yl-ethyl)-7-thiophen-3-yl-2,3-dihydro-isoindol-1-one], the IC50 was 100 to 200 nM.
Molecule O=C1c2c(cccc2-c2cccc(F)c2)CN1CCc1ccc2ccccc2n1 [Example 27, 7-(3-Fluoro-phenyl)-2-(2-quinolin-2-yl-ethyl)-2,3-dihydro-isoindol-1-one] has an IC50 of 100 to 200 nM.
O=C1c2c(cccc2-c2ccccc2F)CN1CCc1ccc2ccccc2n1 [Example 29, 7-(2-Fluoro-phenyl)-2-(2-quinolin-2-yl-ethyl)-2,3-dihydro-isoindol-1-one] was tested, and the IC50 was 100 to 200 nM.
With O=C1c2c(cccc2-c2cccnc2)CN1CCc1ccc2ccccc2n1 [Example 30, 7-Pyridin-3-yl-2-(2-quinolin-2-yl-ethyl)-2,3-dihydro-isoindol-1-one] the IC50 was less than 100 nM.
Molecule O=C1c2c(cccc2-c2ccco2)CN1CCc1ccc2ccccc2n1 [Example 31, 7-Furan-2-yl-2-(2-quinolin-2-yl-ethyl)-2,3-dihydro-isoindol-1-one] has an IC50 of 200 to 500 nM.
Molecule COc1ccc(-c2cccc3c2C(=O)N(CCc2ccc4ccccc4n2)C3)cc1F [Example 32, 7-(3-Fluoro-4-methoxy-phenyl)-2-(2-quinolin-2-yl-ethyl)-2,3-dihydro-isoindol-1-one] has an IC50 of 200 to 500 nM.
O=C1c2c(cccc2-c2ccc(F)c(F)c2)CN1CCc1ccc2ccccc2n1 [Example 33, 7-(3,4-Difluoro-phenyl)-2-(2-quinolin-2-yl-ethyl)-2,3-dihydro-isoindol-1-one] was tested, and the IC50 was 200 to 500 nM.
O=C1c2c(cccc2-c2ccc3c(c2)OCO3)CN1CCc1ccc2ccccc2n1 [Example 34, 7-Benzo[1,3]dioxol-5-yl-2-(2-quinolin-2-yl-ethyl)-2,3-dihydro-isoindol-1-one] showed an IC50 of 100 to 200 nM.
